1 molecule from patent US8110675B2, “TP expression-inhibiting compound and siRNA sequence thereof” (Chang Gung University, priority 2009, dated 2012) can be followed below.

Structures are written as SMILES.

The assay has as its system NPC-TW02 and NPC-TW02/TP cells. The assay can be described thus: cytotoxicity assay with 5′-DFUR, apoptosis by annexin V flow cytometry. Type of assay: cell-based. The settings on record: TP over-expression, 72 hours. The procedure: Refer to FIG. 1A and FIG. 1B. A cell line of nasopharyngeal cancer NPC-TW02/TP is established to stably express exogenous TP. First, the TP-expression carrier pcDNA3.1-PT is transfected to the cell line. Next, the cell line is screened and then cultivated in a culture solution having 500 μg/ml G418. Next is performed a cytotoxicity assay, wherein NPC-TW02 and NPC-TW02/TP are respectively processed with 5′-DFUR (Sigma-Aldrich, St. Louis, Mo., USA). Next, the cell lines are further cultivated for 72 hours. Next, the cell membranes are everted to expose phosphatidylserine. Then, phosphatidylserine is analyzed with the Vybrant® Apoptosis Assay Kit #2 (a product of Invitrogen).
Firstly, 2×10^5 cells are taken out and washed with PBS. Next, a buffer solution (10 mM HEPES, 140 mM NaCl, 2.5 mM CaCl2, pH 7.4) is used to adjust the solution to have a cell concentration of 2×10^6/mL. Next, 5 μl Alexa Fluor® 488 annexin V is added into 100 μl cell suspension, and then the cell suspension reacts at an ambient temperature for 15 minutes. Next, the cell specimens (10000 events) are analyzed with a flow cytometer (a product of Becton Dickinson), as shown in FIG. 3. […] Then, phosphatidylserine is analyzed with the Vybrant® Apoptosis Assay Kit #2 (a product of Invitrogen).

`C[C@H]1O[C@@H](n2cc(F)c(=O)[nH]c2=O)[C@H](O)[C@@H]1O` [5′-DFUR, 5-fluoro-5′-deoxyuridine]: the “sensitivity of TP over-expressing nasopharyngeal cancer cells / induction of apoptosis” value is “can induce the apoptosis of cancer cells”.
